We go through 1 molecule from ChEMBL document CHEMBL3525899, “Identification of the cytochrome P450 and other enzymes involved in the in vitro oxidative metabolism of a novel antidepressant, Lu AA21004” (Drug Metab Dispos, 2012).

Some results are limits rather than exact numbers.

The subject of data set [1] is Liver microsome. Kind of data set: Drug metabolism in pooled human liver microsomes assessed as formation of 3-(2,4-dimethylphenylthio)-4-(piperazin-1-yl)phenol after 30 mins by Michaelis-Menten plot analysis in presence of NADPH regenerating system with NADP+. Particulars: 0.5 h, read-out: Km(app). Type of data set: ADME.
For data set [2], the target named is T1, Flavin-containing monooxygenase 3 (Homo sapiens, UniProt P31513).
T1 sequence (P31513 whole entry): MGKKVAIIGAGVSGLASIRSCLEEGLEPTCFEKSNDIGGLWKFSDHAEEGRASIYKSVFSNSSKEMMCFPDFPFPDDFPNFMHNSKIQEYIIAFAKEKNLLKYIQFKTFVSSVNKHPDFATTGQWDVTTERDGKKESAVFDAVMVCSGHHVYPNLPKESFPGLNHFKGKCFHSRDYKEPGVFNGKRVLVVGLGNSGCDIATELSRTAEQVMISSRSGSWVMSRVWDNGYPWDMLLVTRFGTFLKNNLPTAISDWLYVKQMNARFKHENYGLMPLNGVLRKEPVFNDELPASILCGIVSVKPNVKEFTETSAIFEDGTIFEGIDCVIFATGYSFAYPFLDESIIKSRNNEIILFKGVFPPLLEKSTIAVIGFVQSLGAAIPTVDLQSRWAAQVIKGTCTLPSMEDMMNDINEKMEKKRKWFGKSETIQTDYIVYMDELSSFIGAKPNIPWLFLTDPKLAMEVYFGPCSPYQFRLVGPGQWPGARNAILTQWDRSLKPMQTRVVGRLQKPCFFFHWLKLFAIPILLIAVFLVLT
Kind of data set: Activity of human recombinant FMO3 expressed in microsomes isolated from baculovirus infected insect BTI-TN-5B1-4 cells assessed as enzyme-mediated 4-(2-(2,4-dimethylphenylthio)phenyl)piperazin-1-ol formation at 8 to 50 uM after 120 mins by HPLC/MS-MS analysis in presence of NADPH regenerating system with NADP+. Format: ADME. Particulars: 2 h.

In a further data set the target is T2, Cytochrome P450 2A6 (Homo sapiens, UniProt P11509).
T2 sequence (P11509 whole entry): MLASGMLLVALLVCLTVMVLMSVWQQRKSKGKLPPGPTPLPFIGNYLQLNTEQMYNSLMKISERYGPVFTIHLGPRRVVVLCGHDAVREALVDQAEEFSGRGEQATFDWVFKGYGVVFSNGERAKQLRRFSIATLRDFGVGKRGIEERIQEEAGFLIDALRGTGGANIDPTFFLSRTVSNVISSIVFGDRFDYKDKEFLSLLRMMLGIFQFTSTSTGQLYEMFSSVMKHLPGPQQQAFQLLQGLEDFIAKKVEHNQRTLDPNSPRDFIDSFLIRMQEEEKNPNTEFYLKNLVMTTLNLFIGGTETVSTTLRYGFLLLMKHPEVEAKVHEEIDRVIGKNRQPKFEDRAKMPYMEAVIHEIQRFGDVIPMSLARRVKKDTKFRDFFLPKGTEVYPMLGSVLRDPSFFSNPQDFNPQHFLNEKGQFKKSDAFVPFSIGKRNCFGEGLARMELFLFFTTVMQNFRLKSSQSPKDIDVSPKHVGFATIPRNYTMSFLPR
Kind of data set: Activity of human recombinant CYP2A6 expressed in microsomes isolated from human AHH-1 cells assessed as enzyme-mediated 3-(2,4-dimethylphenylthio)-4-(piperazin-1-yl)phenol formation at 8 to 50 uM after 120 mins by HPLC/MS-MS analysis in presence of NADPH regenerating system with NADP+. Format: ADME, cell-free. Particulars: 2 h.

Data set [3] deals with T1, Flavin-containing monooxygenase 3. As to the kind of experiment: Activity of human recombinant FMO3 expressed in microsomes isolated from baculovirus infected insect BTI-TN-5B1-4 cells assessed as enzyme-mediated 3-methyl-4-(2-(piperazin-1-yl)phenylthio)phenyl)methanol formation at 8 to 50 uM after 120 mins by HPLC/MS-MS analysis in presence of NADPH regenerating system with NADP+. Type of data set: ADME. Particulars: 2 h.

For data set [4], the system named is Liver microsome. Kind of data set: Drug metabolism in pooled human liver microsomes at 100 uM after 30 to 180 mins by HPLC/MS-MS analysis in absence of NADPH regenerating system with NADP+. Type of data set: ADME.
In data set [5] the test system is Liver microsome. As to the kind of experiment: Drug metabolism in pooled human liver microsomes at 100 uM after 30 to 180 mins by HPLC/MS-MS analysis in presence of NADPH regenerating system without NADP+. Type of data set: ADME.
The test system of data set [6] is Liver microsome. As to the kind of experiment: Drug metabolism in phenotyped human liver microsomes assessed as formation of (3-methyl-4-(2-(piperazin-1-yl)phenylthio)phenyl)methanol at 8 to 50 uM after 60 mins by HPLC/MS-MS analysis in presence of NADPH regenerating system with NADP+. Format: ADME. Particulars: 1 h.
Another data set deals with Cytochrome P450 2D6 (Homo sapiens, UniProt P10635). Kind of data set: Activity of human recombinant CYP2D6 expressed in microsomes isolated from human AHH-1 cells assessed as enzyme-mediated 3-(2,4-dimethylphenylthio)-4-(piperazin-1-yl)phenol formation at 8 to 50 uM after 120 mins by HPLC/MS-MS analysis in presence of NADPH regenerating system with NADP+. Format: ADME, cell-free. Particulars: 2 h.

The test system of data set [7] is Liver microsome. As to the kind of experiment: Drug metabolism in pooled human liver microsomes assessed as formation of (3-methyl-4-(2-(piperazin-1-yl)phenylthio)phenyl)methanol at 100 uM after 30 to 180 mins by HPLC/MS-MS analysis in presence of NADPH regenerating system with NADP+. Type of data set: ADME.
In a further data set the target is Cytochrome P450 3A4 (Homo sapiens, UniProt P08684). Kind of data set: Activity of human recombinant CYP3A4 expressed in microsomes isolated from human AHH-1 cells assessed as enzyme-mediated 1-(2-(2,4-dimethylphenylsulfinyl)phenyl)piperazine formation at 8 to 50 uM after 120 mins by HPLC/MS-MS analysis in presence of NADPH regenerating system with NADP+. Format: ADME, cell-free. Particulars: 2 h.

Data set [8] concerns Liver microsome. Kind of data set: Drug metabolism in pooled human liver microsomes assessed as formation of 1-(2-(2,4-dimethylphenylsulfinyl)phenyl)piperazine after 30 mins by Michaelis-Menten plot analysis in presence of NADPH regenerating system with NADP+. Format: ADME. Particulars: 0.5 h, read-out: Km(app).
In the next data set the target is Cytochrome P450 2E1 (Homo sapiens, UniProt P05181). Kind of data set: Activity of human recombinant CYP2E1 expressed in microsomes isolated from human AHH-1 cells assessed as enzyme-mediated 1-(2-(2,4-dimethylphenylsulfinyl)phenyl)piperazine formation at 8 to 50 uM after 120 mins by HPLC/MS-MS analysis in presence of NADPH regenerating system with NADP+. Format: ADME, cell-free. Particulars: 2 h.

Data set [9] deals with Liver microsome. As to the kind of experiment: Drug metabolism in pooled human liver microsomes assessed as formation of 3-methyl-4-(2-(piperazin-1-yl)phenylthio)benzoic acid at 100 uM after 30 to 180 mins by HPLC/MS-MS analysis in presence of NADPH regenerating system with NADP+. Type of data set: ADME.
The test system of data set [10] is Liver microsome. Kind of data set: Drug metabolism in pooled human liver microsomes assessed as formation of 1-(2-(2,4-dimethylphenylsulfinyl)phenyl)piperazine per mg of protein after 30 mins by Michaelis-Menten plot analysis in presence of NADPH regenerating system with NADP+. Type of data set: ADME. Particulars: 0.5 h.
Data set [11] has as its system Liver microsome. Kind of data set: Drug metabolism in phenotyped human liver microsomes assessed as formation of 3-(2,4-dimethylphenylthio)-4-(piperazin-1-yl)phenol at 8 to 50 uM after 60 mins by HPLC/MS-MS analysis in presence of NADPH regenerating system with NADP+. Particulars: 1 h. Format: ADME.

Cytochrome P450 3A4, sequence (P08684 whole entry): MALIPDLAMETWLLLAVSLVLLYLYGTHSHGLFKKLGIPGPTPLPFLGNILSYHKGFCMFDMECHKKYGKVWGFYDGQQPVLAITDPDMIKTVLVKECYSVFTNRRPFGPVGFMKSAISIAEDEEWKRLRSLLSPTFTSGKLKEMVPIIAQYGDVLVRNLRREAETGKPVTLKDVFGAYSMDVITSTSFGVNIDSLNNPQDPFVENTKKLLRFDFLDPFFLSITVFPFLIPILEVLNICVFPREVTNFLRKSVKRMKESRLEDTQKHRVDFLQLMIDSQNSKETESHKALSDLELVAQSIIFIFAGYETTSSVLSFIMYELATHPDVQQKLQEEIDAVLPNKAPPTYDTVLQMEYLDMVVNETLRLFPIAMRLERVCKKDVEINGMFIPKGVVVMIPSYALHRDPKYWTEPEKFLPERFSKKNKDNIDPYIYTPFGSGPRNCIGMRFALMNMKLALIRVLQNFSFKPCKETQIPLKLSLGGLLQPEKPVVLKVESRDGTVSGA
Cytochrome P450 2E1, sequence (P05181 whole entry): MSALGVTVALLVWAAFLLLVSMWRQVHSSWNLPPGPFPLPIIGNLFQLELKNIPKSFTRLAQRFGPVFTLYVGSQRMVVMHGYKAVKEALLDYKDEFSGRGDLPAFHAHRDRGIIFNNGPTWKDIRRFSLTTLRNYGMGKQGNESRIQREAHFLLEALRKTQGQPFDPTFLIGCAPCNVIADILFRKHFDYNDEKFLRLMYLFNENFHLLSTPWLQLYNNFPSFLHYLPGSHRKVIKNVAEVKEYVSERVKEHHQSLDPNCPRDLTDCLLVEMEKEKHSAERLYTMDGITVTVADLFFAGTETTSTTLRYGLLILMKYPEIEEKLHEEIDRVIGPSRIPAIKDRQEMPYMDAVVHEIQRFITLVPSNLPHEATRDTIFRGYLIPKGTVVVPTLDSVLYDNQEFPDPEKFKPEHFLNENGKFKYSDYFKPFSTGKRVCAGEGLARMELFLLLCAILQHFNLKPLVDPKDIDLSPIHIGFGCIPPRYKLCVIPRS
Cytochrome P450 2D6, sequence (P10635 whole entry): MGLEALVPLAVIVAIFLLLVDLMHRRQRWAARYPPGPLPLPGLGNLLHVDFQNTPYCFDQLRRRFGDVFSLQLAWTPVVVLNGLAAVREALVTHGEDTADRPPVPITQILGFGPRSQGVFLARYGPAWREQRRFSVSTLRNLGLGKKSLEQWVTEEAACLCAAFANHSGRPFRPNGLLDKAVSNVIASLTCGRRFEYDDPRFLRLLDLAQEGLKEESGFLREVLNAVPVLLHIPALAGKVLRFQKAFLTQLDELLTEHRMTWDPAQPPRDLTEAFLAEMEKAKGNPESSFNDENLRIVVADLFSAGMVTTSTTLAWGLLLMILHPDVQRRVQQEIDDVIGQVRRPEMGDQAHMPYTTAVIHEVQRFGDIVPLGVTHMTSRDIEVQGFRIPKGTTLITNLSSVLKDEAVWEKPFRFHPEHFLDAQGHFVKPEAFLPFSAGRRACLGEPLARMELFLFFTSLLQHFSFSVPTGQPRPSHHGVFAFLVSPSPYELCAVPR

For `Br.Cc1ccc(Sc2ccccc2N2CCNCC2)c(C)c1` [VORTIOXETINE HYDROBROMIDE], the Michaelis constant (Km) in the data set with Liver microsome [1] is 323 µM; in the data set on Liver microsome [8], at least 208 µM. The Drug metabolism entry in data set [2] is recorded as “metabolite_not_detected”; on Cytochrome P450 2A6 it was “metabolite_not_detected”; in data set [3], “metabolite_not_detected”; in the data set with Liver microsome [4] it was “metabolite_not_detected”; in the data set on Liver microsome [5], “metabolite_not_detected”; in the data set with Liver microsome [6], “metabolite_detected”. The Drug metabolism result on Cytochrome P450 2D6 is given as “metabolite_detected”; in the data set with Liver microsome [7], “metabolite_detected”; on Cytochrome P450 3A4, “metabolite_detected”; at Cytochrome P450 2E1, “metabolite_not_detected”; with Liver microsome [9], “metabolite_detected”; in the data set on Liver microsome [11], “metabolite_detected”. In addition, the “Vmax(app)” value in the data set with Liver microsome [10] is “>= 227 pmol/min”.
